Experimental data taken from US20150197536A1, “COMPOUNDS REDUCING THE PRODUCTION OF SORBITOL IN THE EYE AND METHODS OF USING THE SAME” (THE REGENTS OF THE UNIVERSITY OF COLORADO, a body corporate, priority 2012, published 2015).

Legend:
AKR1B10 = AKR1B10 (Homo sapiens, UniProt O60218); experiment: Aldo keto reductase specificity, AKR1B10; assay type: biochemical; conditions: FIG. 3B; result in words
AKR1A1 = target: T1, AKR1A1 (Homo sapiens, UniProt P14550); experiment: Aldo keto reductase specificity, AKR1A1; assay type: biochemical; conditions: FIG. 3B; result in words
T1 sequence (P14550 1-325): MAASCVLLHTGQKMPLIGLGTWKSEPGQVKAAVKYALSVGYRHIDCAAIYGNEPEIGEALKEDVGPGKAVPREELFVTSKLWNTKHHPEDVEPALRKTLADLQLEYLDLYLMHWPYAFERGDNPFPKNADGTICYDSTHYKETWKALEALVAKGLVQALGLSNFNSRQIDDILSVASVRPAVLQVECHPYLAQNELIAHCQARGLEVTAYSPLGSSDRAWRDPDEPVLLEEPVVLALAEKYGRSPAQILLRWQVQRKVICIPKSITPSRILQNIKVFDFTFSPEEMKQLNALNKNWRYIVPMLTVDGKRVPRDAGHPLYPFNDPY

[1] = tested on: Raw264.7 murine macrophages; experiment: Sorbitol accumulation in Raw264.7 murine macrophages; assay type: cell-based; conditions: FIG. 4A/5A
[2] = tested on: lenses of PAR40 transgenic mice that express human AKR1B1; experiment: Sorbitol accumulation in lenses of PAR40 transgenic mice cultured ex vivo; assay type: cell-based; conditions: PAR40 transgenic mice expressing human AKR1B1; hyperglycemic conditions; lenses excised and cultured ex vivo; FIG. 4B/5B
diabetic cataracts = conditions: active ingredient of gooseberry extracts; Puppala et al. 2012; cited from earlier work

Sequence of AKR1B10 (O60218 whole entry, species assumed): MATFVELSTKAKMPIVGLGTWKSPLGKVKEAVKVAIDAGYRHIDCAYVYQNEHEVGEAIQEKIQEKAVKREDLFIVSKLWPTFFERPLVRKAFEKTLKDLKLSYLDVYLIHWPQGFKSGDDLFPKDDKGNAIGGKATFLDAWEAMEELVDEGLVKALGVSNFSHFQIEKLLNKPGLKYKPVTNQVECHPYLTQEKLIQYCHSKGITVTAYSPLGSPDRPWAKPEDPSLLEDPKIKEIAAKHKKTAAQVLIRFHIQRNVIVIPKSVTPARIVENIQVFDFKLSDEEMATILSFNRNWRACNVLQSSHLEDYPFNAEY

Compound | specificity for AKR1B1 over AKR1B10 (AKR1B10) | specificity for AKR1B1 over AKR1A1 (AKR1A1) | sorbitol accumulation [1] | sorbitol accumulation [2] | efficacy in slowing the progression of diabetic cataracts (diabetic cataracts)
O=C(N[C@@H]1O[C@H](CO)[C@@H](O)[C@H](O)[C@H]1O)c1cc(O)c(O)c(O)c1 [BGA, 1-deoxy-1-(3,4,5-trihydroxybenzamido)-β-D-glucopyranose] | displays specificity for AKR1B1 over other aldo keto reductase enzymes | displays specificity for AKR1B1 over other aldo keto reductase enzymes | blocks sorbitol accumulation | blocks sorbitol accumulation | 
O=C(O[C@@H]1O[C@H](CO)[C@@H](O)[C@H](O)[C@H]1O)c1cc(O)c(O)c(O)c1 [BGG, 1-O-(3,4,5-trihydroxybenzoyl)-β-D-glucopyranose] |  |  |  |  | efficacy in slowing the progression of diabetic cataracts
